The subject of assay [1] is human ileum monolayer culture. As to the kind of experiment: Sustained inhibition of apical acid secretion in human organoid monolayer cell cultures (ileum). Type of assay: cell-based. The following applies: Homo sapiens, 48 h; 1 μM apical, dosed day 6, apical media pH day 8, vs DMSO. Summed up:
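Human ileum organoid-derived Transwell monolayers, differentiated with ENRA from day 3, received 1 μM compound apically on day 6 (DMSO vehicle, duplicate wells). Apical medium pH was measured by electrode on day 8 as a readout of sustained NHE3-mediated proton secretion inhibition.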

The test system of assay [2] is human duodenum monolayer culture. As to the kind of experiment: Sustained inhibition of apical acid secretion in human organoid monolayer cell cultures (duodenum). Type of assay: cell-based. The following applies: Homo sapiens. Summed up:
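Duodenum organoid cells were plated on Transwells, differentiated with EGF/noggin/A83-01 from day 3, and dosed apically on day 6 with compound at 1 μM final (DMSO vehicle control), in duplicate wells, at 37° C, 5% CO2. Apical media pH was measured by electrode on day 8.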

Assay [3] deals with absorption of sodium from the intestinal lumen. As to the kind of experiment: Inhibition of intestinal sodium absorption in mice. The following applies: CD-1 mice, 15 mg/kg oral gavage twice daily; for Fecal fluid content (Δ from vehicle): day 3, change from vehicle group mean; for response vs control in vivo at 15 mg/kg: Mus musculus, 72 h, day 3, normalized to dietary sodium intake. Type of assay: in vivo. Summed up: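 Male ~8-week CD-1 mice on chow with added 0.4% inorganic phosphorous, in metabolic cages after 3-day acclimation and 24-hr baseline collection. Urine sodium by ion chromatography, dried fecal sodium by MP-AES; day-3 24-hour excretion normalized to dietary sodium intake and expressed as % of vehicle mean; diarrhea and fecal fluid also recorded.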

Where [4] appears, read: read-out: Fecal Na Excretion (% of vehicle).
Setting [5] is: read-out: Urinary Na Excretion (% of vehicle).

Where two headings read alike, the source gives them in different places. Bounds are passed on as bounds.

The text below walks through data of patent publication US11242337B2, “Compounds useful for treating gastrointestinal tract disorders” (Ardelyx, Inc., priority 2017, dated 2022).

A word on the inhibition: it is how much of the control response was suppressed. A lower inhibition goes with a response near the control. For `CN(C)[C@H]1Cc2c(Cl)cc(Cl)cc2[C@@H]1Oc1ccc(S(=O)(=O)NCCOCCOCCNC(=O)NCCCCNC(=O)NCCOCCOCCNS(=O)(=O)c2ccc(O[C@H]3c4cc(Cl)cc(Cl)c4C[C@@H]3N(C)C)c(F)c2)cc1F` [Example 23, 3-[2-(2-[2-[(4-[[(1S,2S)-4,6-Dichloro-2-(dimethylamino)-2,3-dihydro-1H-inden-1-yl]oxy]-3-fluorobenzene)sulfonamido]ethoxy]ethoxy)ethyl]-1-[4-([[2-(2-[2-[(4-[[(1S,2S)-4,6-dichloro-2-(dimethylamino)-2,3-dihydro-1H-inden-1-yl]oxy]-3-fluorobenzene)sulfonamido]ethoxy]ethoxy)ethyl]carbamoyl]amino)butyl]urea; bis(trifluoroacetic acid)], the inhibition at 1 µM in assay [1] and in assay [2] was 50 to 70% in each case. Moreover, the “Fecal fluid content (Δ from vehicle)” value in assay [3] is listed as “B (5-10)”. Moreover, the values for the response vs control in vivo at 15 mg/kg in assay [3] (setting [4]) and in assay [3] (setting [5]) were 150 to 200% and 50 to 70%, respectively.
Turning to `Cc1cc(S(=O)(=O)NCCOCCOCCNC(=O)NCCCCNC(=O)NCCOCCOCCNS(=O)(=O)c2ccc(O[C@H]3c4cc(Cl)cc(Cl)c4C[C@@H]3N3CCC[C@@H](N(C)C)C3)c(C)c2)ccc1O[C@H]1c2cc(Cl)cc(Cl)c2C[C@@H]1N1CCC[C@@H](N(C)C)C1` [Example 26, 3-[2-(2-[2-[(4-[[(1S,2S)-4,6-Dichloro-2-[(3R)-3-(dimethylamino)piperidin-1-yl]-2,3-dihydro-1H-inden-1-yl]oxy]-3-methylbenzene)sulfonamido]ethoxy]ethoxy)ethyl]-1-[4-([[2-(2-[2-[4-[[(1S,2S)-4,6-dichloro-2-[(3R)-3-(dimethylamino)piperidin-1-yl]-2,3-dihydro-1H-inden-1-yl]oxy]-3-methylbenzenesulfonamido]ethoxy]ethoxy)ethyl]carbamoyl]amino)butyl]urea; bis(trifluoroacetic acid)], the inhibition at 1 µM in assay [1] and in assay [2] was 50 to 70% throughout. Moreover, the “Fecal fluid content (Δ from vehicle)” value in assay [3] is recorded as “B (5-10)”. In addition, the values for the response vs control in vivo at 15 mg/kg in assay [3] (setting [4]) and in assay [3] (setting [5]) were 150 to 200% and 50 to 70%, respectively.
Regarding `Cc1cc(S(=O)(=O)NCCOCCOCCNC(=O)NCCCCNC(=O)NCCOCCOCCNS(=O)(=O)c2ccc(O[C@H]3c4cc(Cl)cc(C#N)c4C[C@@H]3N3CCNCC3)c(C)c2)ccc1O[C@H]1c2cc(Cl)cc(C#N)c2C[C@@H]1N1CCNCC1` [Example 42, 3-[2-(2-[2-[(4-[[(1S,2S)-6-Chloro-4-cyano-2-(piperazin-1-yl)-2,3-dihydro-1H-inden-1-yl]oxy]-3-methylbenzene)sulfonamido]ethoxy]ethoxy)ethyl]-1-[4-([[2-(2-[2-[(4-[[(1S,2S)-6-chloro-4-cyano-2-(piperazin-1-yl)-2,3-dihydro-1H-inden-1-yl]oxy]-3-methylbenzene)sulfonamido]ethoxy]ethoxy)ethyl]carbamoyl]amino)butyl]urea; bis(trifluoroacetic acid)], the inhibition at 1 µM in assay [1] and in assay [2] was greater than 70% throughout. Further, the “Fecal fluid content (Δ from vehicle)” value in assay [3] was “B (5-10)”. Also, the response vs control in vivo at 15 mg/kg is 150 to 200% in assay [3] (setting [4]) and less than 50% in assay [3] (setting [5]).
For the molecule `Cc1cc(Cl)cc2c1C[C@H](N1CCNCC1)[C@H]2Oc1ccc(S(=O)(=O)NCCOCCOCCNC(=O)NCCCCNC(=O)NCCOCCOCCNS(=O)(=O)c2ccc(O[C@H]3c4cc(Cl)cc(C)c4C[C@@H]3N3CCNCC3)cc2)cc1` [Example 34, 3-[2-(2-[2-[(4-[[(1S,2S)-6-Chloro-4-methyl-2-(piperazin-1-yl)-2,3-dihydro-1H-inden-1-yl]oxy]benzene)sulfonamido]ethoxy]ethoxy)ethyl]-1-[4-([[2-(2-[2-[(4-[[(1S,2S)-6-chloro-4-methyl-2-(piperazin-1-yl)-2,3-dihydro-1H-inden-1-yl]oxy]benzene)sulfonamido]ethoxy]ethyl)ethyl]carbamoyl]amino)butyl]urea; bis(trifluoroacetic acid)], the inhibition at 1 µM in assay [1] and in assay [2] was 50 to 70% in each case. The “Fecal fluid content (Δ from vehicle)” value in assay [3] was “B (5-10)”. In addition, the response vs control in vivo at 15 mg/kg was 150 to 200% in assay [3] (setting [4]) and 50 to 70% in assay [3] (setting [5]).
